This passage reports IC50 results from US11459329B2, “Imidazopyridazine and imidazopyridine compounds and uses thereof” (Incyte Corporation, priority 2018, dated 2022).

Bounds are passed on as bounds.

In one experiment the target is ALK2 (aa 147-end) (Homo sapiens (Human), UniProt Q04771). Description: ALK2 HTRF Assay. Format: biochemical.
Sequence of ALK2 (aa 147-end) (Q04771 147-509): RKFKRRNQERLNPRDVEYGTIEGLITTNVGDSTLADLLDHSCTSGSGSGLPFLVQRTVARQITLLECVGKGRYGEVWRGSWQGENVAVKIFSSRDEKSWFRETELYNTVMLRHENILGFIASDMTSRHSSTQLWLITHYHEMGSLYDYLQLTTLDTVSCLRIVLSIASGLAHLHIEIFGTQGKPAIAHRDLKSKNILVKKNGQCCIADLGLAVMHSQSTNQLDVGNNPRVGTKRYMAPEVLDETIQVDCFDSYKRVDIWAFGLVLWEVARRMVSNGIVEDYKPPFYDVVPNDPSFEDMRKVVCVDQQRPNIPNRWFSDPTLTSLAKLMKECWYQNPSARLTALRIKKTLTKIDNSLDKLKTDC
Settings: not given
The protocol: The enzymatic assays were conducted in white 384-well polystyrene plates in a final volume of 8 μL. The inhibitors were serially diluted in DMSO and added to the plate wells prior to addition of the other reaction components. The assays were carried out at 25° C. in the assay buffer (50 mM HEPES, pH 7.0, 10% Glycerol, 0.01% Brij50, 10 mM MgCl2, 1 mM EGTA, 5 mM DTT, and 0.01% BSA), containing 50 nM LANCE Ultra ULight™-DNA Topoisomerase 2-alpha peptide (Perkin Elmer TRF0130), and 3 μM ATP. The final concentration of DMSO in the assay was 1% and the enzyme concentration was 0.5 nM for ALK2. […] […] IC50 determination was performed by fitting percent control activity versus the log of the inhibitor concentration using the IDBS XLFit and GraphPad Prism 5.0 software.
For orientation: Time-resolved FRET reads energy transfer from a long-lived donor to a nearby acceptor.
For `Cc1nn2c(-c3ccnc4nc(-c5cnn(C)c5)ccc34)cnc2cc1-c1cnn(C(C)C)c1` [Example 51, 5-(7-(1-Isopropyl-1H-pyrazol-4-yl)-6-methylimidazo[1,2-b]pyridazin-3-yl)-2-(1-methyl-1H-pyrazol-4-yl)-1,8-naphthyridine], the 50% inhibitory concentration (IC50) – broadly, the concentration that inhibits the measured activity by half – lay within 1 to 5 nM.

The same experiment, now with this note: 3 μM ATP, 0.5 nM ALK2, 2 hr, 25° C.; read-out: ALK2 IC50.
`Cc1nn2c(-c3ccnc4nc(-c5ccccn5)ccc34)cnc2cc1-c1cnn([C@H]2CC[C@H](O)CC2)c1` [Example 37, (1R,4R)-4-(4-(6-Methyl-3-(7-(pyridin-2-yl)-1,8-naphthyridin-4-yl)imidazo[1,2-b]pyridazin-7-yl)-1H-pyrazol-1-yl)cyclohexan-1-ol]: the half-maximal inhibitory concentration (IC50) is less than 1 nM.
Same read-out and setting: to `Cc1nn2c(-c3ccnc4nc(-c5cnccn5)ccc34)cnc2cc1-c1cnn(C2CCOCC2)c1` [Example 44, 5-(6-Methyl-7-(1-(tetrahydro-2H-pyran-4-yl)-1H-pyrazol-4-yl)imidazo[1,2-b]pyridazin-3-yl)-2-(pyrazin-2-yl)-1,8-naphthyridine] belongs 1 to 5 nM.
Same read-out and setting: to `Cc1nn2c(-c3ccnc4c3CCN4C(=O)c3ccncc3)cnc2cc1-c1cnn(C2CCOCC2)c1` [Example 32, (4-(6-methyl-7-(1-(tetrahydro-2H-pyran-4-yl)-1H-pyrazol-4-yl)imidazo[1,2-b]pyridazin-3-yl)-2,3-dihydro-1H-pyrrolo[2,3-b]pyridin-1-yl)(pyridin-4-yl)methanone] belongs 5 to 100 nM; to `CC(=O)N1C[C@@H]2C[C@H]1CN2c1ccc2c(-c3cnc4cc(-c5cnn([C@H]6CC[C@H](O)CC6)c5)c(C)nn34)ccnc2c1` [Example 33, 1-((1S,4S)-5-(4-(7-(1-((1R,4R)-4-hydroxycyclohexyl)-1H-pyrazol-4-yl)-6-methylimidazo[1,2-b]pyridazin-3-yl)quinolin-7-yl)-2,5-diazabicyclo[2.2.1]heptan-2-yl)ethan-1-one], 5 to 100 nM; to `Cc1nn2c(-c3ccc(C#N)c4ncccc34)cnc2cc1-c1ccc(N2CCNCC2)cc1` [Example 28, 5-(6-methyl-7-(4-(piperazin-1-yl)phenyl)imidazo[1,2-b]pyridazin-3-yl)quinoline-8-carbonitrile], 5 to 100 nM.
For the molecule `Cc1nn2c(-c3ccnc4cc(-c5ccncc5)ccc34)cnc2cc1-c1ccc(N2CCN(CCO)CC2)cc1` [Example 11, 2-(4-(4-(6-Methyl-3-(7-(pyridin-4-yl)quinolin-4-yl)imidazo[1,2-b]pyridazin-7-yl)phenyl)piperazin-1-yl)ethan-1-ol], the IC50 is less than 1 nM.
For `Cc1nn2c(-c3ccnc4cc(N5CCN6C(=O)CCC6C5)ccc34)cnc2cc1-c1cnn([C@H]2CC[C@H](O)CC2)c1` (stereo partly drawn) [Example 34, 2-(4-(7-(1-((1R,4R)-4-hydroxycyclohexyl)-1H-pyrazol-4-yl)-6-methylimidazo[1,2-b]pyridazin-3-yl)quinolin-7-yl)hexahydropyrrolo[1,2-a]pyrazin-6(2H)-one], the IC50 lay in the range of 5 to 100 nM.
Same read-out and setting: to `Cc1nn2c(-c3ccnc4cc(C(O)c5cc(F)cc(F)c5)ccc34)cnc2cc1-c1ccc(N2CCNCC2)cc1` (centres unmarked) [Example 25, (3,5-difluorophenyl)(4-(6-methyl-7-(4-(piperazin-1-yl)phenyl)imidazo[1,2-b]pyridazin-3-yl)quinolin-7-yl)methanol] belongs 1 to 5 nM.
For `Cc1nn2c(-c3ccnc4nc(-c5ccn(C)n5)ccc34)cnc2cc1-c1cnn(C(C)C)c1` [Example 45, 5-(7-(1-Isopropyl-1H-pyrazol-4-yl)-6-methylimidazo[1,2-b]pyridazin-3-yl)-2-(1-methyl-1H-pyrazol-3-yl)-1,8-naphthyridine], the IC50 was 1 to 5 nM.
In the case of `Cc1nn2c(-c3ccnc4c(C(=O)NCCO)cccc34)cnc2cc1-c1ccc(N2CCNCC2)cc1` [Example 31, N-(2-hydroxyethyl)-4-(6-methyl-7-(4-(piperazin-1-yl)phenyl)imidazo[1,2-b]pyridazin-3-yl)quinoline-8-carboxamide], the IC50 is more than 100 nM.
On the same count and under the same terms, to `CCn1cnc(-c2ccc3c(-c4cnc5cc(-c6cnn(C(C)C)c6)c(C)nn45)ccnc3n2)c1` [Example 55, 2-(1-Ethyl-1H-imidazol-4-yl)-5-(7-(1-isopropyl-1H-pyrazol-4-yl)-6-methylimidazo[1,2-b]pyridazin-3-yl)-1,8-naphthyridine] belongs 1 to 5 nM.
The same measure, in the same setting: to `CCOC(=O)N1CCN(C(=O)c2nn3c(-c4ccnc5ccccc45)cnc3cc2-c2ccc(N3CCNCC3)cc2)CC1` [Example 4, Ethyl 4-(7-(4-(piperazin-1-yl)phenyl)-3-(quinolin-4-yl)imidazo[1,2-b]pyridazine-6-carbonyl)piperazine-1-carboxylate] belongs 5 to 100 nM.
Regarding `Cc1nn2c(-c3ccnc4nc(-c5cnccn5)ccc34)cnc2cc1-c1ccc(CN2CCC2)cc1` [Example 42, 5-(7-(4-(Azetidin-1-ylmethyl)phenyl)-6-methylimidazo[1,2-b]pyridazin-3-yl)-2-(pyrazin-2-yl)-1,8-naphthyridine], the IC50 was in the range of 1 to 5 nM.
With `Cc1nn2c(-c3ccnc4cc(-c5ccncc5)ccc34)cnc2cc1-c1cccc(N2CCN(C)CC2)c1` [Example 13, 4-(6-Methyl-7-(3-(4-methylpiperazin-1-yl)phenyl)imidazo[1,2-b]pyridazin-3-yl)-7-(pyridin-4-yl)quinolone], the IC50 lay within 5 to 100 nM.
Regarding `Cc1nn2c(-c3ccnc4nc(-c5cnccn5)ccc34)cnc2cc1-c1cnn(C(C)C)c1` [Example 43, 5-(7-(1-Isopropyl-1H-pyrazol-4-yl)-6-methylimidazo[1,2-b]pyridazin-3-yl)-2-(pyrazin-2-yl)-1,8-naphthyridine], the IC50 lay in the range of 1 to 5 nM.
On the same count and under the same terms, to `CCn1cnc(-c2ccc3c(-c4cnc5cc(-c6ccc(CN7CCC7)cc6)c(C)nn45)ccnc3n2)c1` [Example 56, 5-(7-(4-(Azetidin-1-ylmethyl)phenyl)-6-methylimidazo[1,2-b]pyridazin-3-yl)-2-(1-ethyl-1H-imidazol-4-yl)-1,8-naphthyridine] belongs 1 to 5 nM.
Turning to `Cc1cnn(-c2ccc3c(-c4cnc5cc(-c6ccc(CN7CCC(O)CC7)cc6)c(C)nn45)ccnc3n2)n1` [Example 67, 1-(4-(6-methyl-3-(7-(4-methyl-2H-1,2,3-triazol-2-yl)-1,8-naphthyridin-4-yl)imidazo[1,2-b]pyridazin-7-yl)benzyl)piperidin-4-ol], the IC50 is less than 1 nM.
Same read-out and setting: to `CCn1cnc(-c2ccc3c(-c4cnc5cc(-c6ccc(CN7CCO[C@H](CO)C7)cc6)c(C)nn45)ccnc3n2)c1` [Example 59, (S)-(4-(4-(3-(7-(1-ethyl-1H-imidazol-4-yl)-1,8-naphthyridin-4-yl)-6-methylimidazo[1,2-b]pyridazin-7-yl)benzyl)morpholin-2-yl)methanol] belongs 1 to 5 nM.
Still for that read-out and setting: to `Cc1cnn(-c2ccc3c(-c4cnc5cc(-c6ccc(CN7CCCC7)cc6)c(C)nn45)ccnc3n2)n1` [Example 60, 2-(4-Methyl-2H-1,2,3-triazol-2-yl)-5-(6-methyl-7-(4-(pyrrolidin-1-ylmethyl)phenyl)imidazo[1,2-b]pyridazin-3-yl)-1,8-naphthyridine] belongs 1 to 5 nM.
On the same count and under the same terms, to `Cc1cnn(-c2ccc3c(-c4cnc5cc(-c6ccc(CN7CC(C)(O)C7)cc6)c(C)nn45)ccnc3n2)n1` [Example 69, 3-methyl-1-(4-(6-methyl-3-(7-(4-methyl-2H-1,2,3-triazol-2-yl)-1,8-naphthyridin-4-yl)imidazo[1,2-b]pyridazin-7-yl)benzyl)azetidin-3-ol] belongs 1 to 5 nM; to `Cc1cnn(-c2ccc3c(-c4cnc5cc(-c6ccc(CN7CCN(C)CC7)cc6)c(C)nn45)ccnc3n2)n1` [Example 70, 2-(4-methyl-2H-1,2,3-triazol-2-yl)-5-(6-methyl-7-(4-((4-methylpiperazin-1-yl)methyl)phenyl)imidazo[1,2-b]pyridazin-3-yl)-1,8-naphthyridine], 1 to 5 nM.
Take `CCn1cnc(-c2ccc3c(-c4cnc5cc(-c6ccc(CN7CC(F)(F)C7)cc6)c(C)nn45)ccnc3n2)c1` [Example 57]: the IC50 lay within 1 to 5 nM.
On to `Cc1cnn(-c2ccc3c(-c4cnc5cc(-c6cnn(C7CCOCC7)c6)c(C)nn45)ccnc3n2)n1` [Example 62, 2-(4-Methyl-2H-1,2,3-triazol-2-yl)-5-(6-methyl-7-(1-(tetrahydro-2H-pyran-4-yl)-1H-pyrazol-4-yl)imidazo[1,2-b]pyridazin-3-yl)-1,8-naphthyridine], for which the IC50 is less than 1 nM.
On to `Cc1nn2c(-c3ccnc4ncccc34)cnc2cc1-c1ccc(N2CCNCC2)cc1` [Example 27, 4-(6-methyl-7-(4-(piperazin-1-yl)phenyl)imidazo[1,2-b]pyridazin-3-yl)-1,8-naphthyridine], for which the concentration for half-maximal inhibition (IC50) is less than 1 nM.
Turning to `Cc1cn2c(-c3ccc(C(N)=O)c(F)c3)cnc2cc1-c1cnn(C2CCNCC2)c1` [Example 36, 2-fluoro-4-(6-methyl-7-(1-(piperidin-4-yl)-1H-pyrazol-4-yl)imidazo[1,2-a]pyridin-3-yl)benzamide], the IC50 is less than 1 nM.
Still for that read-out and setting: to `CNC(=O)c1ccc2c(-c3cnc4cc(-c5ccc(N6CCNCC6)cc5)c(C)nn34)ccnc2c1` [Example 16, N-methyl-4-(6-methyl-7-(4-(piperazin-1-yl)phenyl)imidazo[1,2-b]pyridazin-3-yl)quinoline-7-carboxamide] belongs 1 to 5 nM.
On the same count and under the same terms, to `OCc1nn2c(-c3ccnc4ccccc34)cnc2cc1-c1ccc(N2CCNCC2)cc1` [Example 7, (7-(4-(Piperazin-1-yl)phenyl)-3-(quinolin-4-yl)imidazo[1,2-b]pyridazin-6-yl)methanol] belongs less than 1 nM.
Same read-out and setting: to `Cc1nn2c(-c3ccnc4cc(CO)ccc34)cnc2cc1-c1ccc(N2CCNCC2)cc1` [Example 26, (4-(6-methyl-7-(4-(piperazin-1-yl)phenyl)imidazo[1,2-b]pyridazin-3-yl)quinolin-7-yl)methanol] belongs 5 to 100 nM.
